Results as given in US20240360134A1, “PYRAZOLOPYRIMIDINES AND THEIR USES AS PDGFR INHIBITORS” (priority 2021, published 2024).

Assays:
[1] = target: Tb-labeled inactive PDGFRβ (Homo sapiens (Human), UniProt P09619); assay: biochemical; type: binding; conditions: read-out: PDGFR Lantha IC50
[2] = target: His6-TEV-PDGFRβ (557-1016) (Homo sapiens (Human), UniProt P09619); assay: PDGFRβ HTRF Assay; type: biochemical; conditions: 800 μM ATP, 0.5 μM TK-substrate biotin peptide, 30 min pre-incubation, 3 hours reaction; read-out: PDGFR HTRF IC50
PDGFRβ = PDGFRβ (Rattus norvegicus (Rat), UniProt Q05030); assay: PDGFRβ Cellular Assay (PDGFRb P-Y751 HTRF, PDGF-BB stimulated A10 cells); type: cell-based; conditions: A10 cells, 3 hours compound, 15 ng/mL PDGFbb for 10 minutes; read-out: PDGFR Cellular IC50
In short: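 Rat A10 cells plated overnight were treated with compound for 3 h, stimulated with rat PDGF-BB (working stock 100 ng/mL in 10% FBS medium) for 10 min, then lysed.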

VEGFR2, unphosphorylated = VEGFR2, unphosphorylated (Homo sapiens (Human), UniProt P35968); assay: VEGFR ADP GLO assay; type: biochemical; conditions: 5 nM VEGFR2, 1.2 mM ATP, 1 mg/mL Srctide, 180 min
In short: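 Unphosphorylated kinase (10 nM 2× solution) pre-incubated 30 min at RT with compounds (11-point, 3-fold, top 10 µM), then reacted 180 min with srctide and ATP (2×: 2 mg/mL, 2.4 mM) in HEPES pH 7.5 buffer. ADP read by luminescence. IC50 from 4-parameter fit, normalized to DMSO and 1 µM TAK-593.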

Chain of VEGFR2, unphosphorylated (P35968 whole entry, looked up): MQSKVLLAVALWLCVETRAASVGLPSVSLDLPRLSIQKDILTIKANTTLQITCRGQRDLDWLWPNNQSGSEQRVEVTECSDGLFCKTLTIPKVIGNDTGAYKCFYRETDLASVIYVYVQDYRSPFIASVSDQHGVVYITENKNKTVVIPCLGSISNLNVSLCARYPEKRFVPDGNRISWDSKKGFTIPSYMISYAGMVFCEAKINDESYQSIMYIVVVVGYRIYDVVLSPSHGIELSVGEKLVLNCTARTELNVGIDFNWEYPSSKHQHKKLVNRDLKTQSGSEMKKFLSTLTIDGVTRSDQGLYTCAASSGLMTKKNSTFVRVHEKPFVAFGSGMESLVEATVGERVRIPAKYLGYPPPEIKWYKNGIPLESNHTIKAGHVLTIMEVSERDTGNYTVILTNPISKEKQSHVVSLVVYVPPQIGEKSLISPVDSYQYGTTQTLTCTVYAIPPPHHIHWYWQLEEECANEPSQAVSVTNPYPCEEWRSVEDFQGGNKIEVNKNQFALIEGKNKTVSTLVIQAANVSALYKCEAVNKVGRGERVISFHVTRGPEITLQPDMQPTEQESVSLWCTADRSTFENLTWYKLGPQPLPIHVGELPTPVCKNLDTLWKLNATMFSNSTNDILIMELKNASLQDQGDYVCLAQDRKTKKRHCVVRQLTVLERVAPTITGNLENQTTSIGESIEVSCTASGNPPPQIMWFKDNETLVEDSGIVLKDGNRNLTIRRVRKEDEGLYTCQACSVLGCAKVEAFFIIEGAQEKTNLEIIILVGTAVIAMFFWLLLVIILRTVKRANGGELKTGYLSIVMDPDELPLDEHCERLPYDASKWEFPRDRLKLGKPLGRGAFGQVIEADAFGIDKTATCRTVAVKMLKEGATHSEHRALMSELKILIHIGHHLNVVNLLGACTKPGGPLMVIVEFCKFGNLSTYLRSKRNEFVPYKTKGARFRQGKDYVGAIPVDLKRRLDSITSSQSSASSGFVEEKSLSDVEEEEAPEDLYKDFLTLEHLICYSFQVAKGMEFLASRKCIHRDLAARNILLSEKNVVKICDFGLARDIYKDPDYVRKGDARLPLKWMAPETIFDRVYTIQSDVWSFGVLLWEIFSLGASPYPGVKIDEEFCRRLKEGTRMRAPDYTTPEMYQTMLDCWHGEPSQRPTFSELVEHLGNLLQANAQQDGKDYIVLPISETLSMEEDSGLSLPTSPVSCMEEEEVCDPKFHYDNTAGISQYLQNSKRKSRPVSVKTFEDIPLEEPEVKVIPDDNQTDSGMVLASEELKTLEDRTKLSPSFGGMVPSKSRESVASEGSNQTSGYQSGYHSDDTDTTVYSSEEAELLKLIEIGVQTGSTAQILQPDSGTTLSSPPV
Chain of His6-TEV-PDGFRβ (557-1016) (P09619 whole entry, looked up): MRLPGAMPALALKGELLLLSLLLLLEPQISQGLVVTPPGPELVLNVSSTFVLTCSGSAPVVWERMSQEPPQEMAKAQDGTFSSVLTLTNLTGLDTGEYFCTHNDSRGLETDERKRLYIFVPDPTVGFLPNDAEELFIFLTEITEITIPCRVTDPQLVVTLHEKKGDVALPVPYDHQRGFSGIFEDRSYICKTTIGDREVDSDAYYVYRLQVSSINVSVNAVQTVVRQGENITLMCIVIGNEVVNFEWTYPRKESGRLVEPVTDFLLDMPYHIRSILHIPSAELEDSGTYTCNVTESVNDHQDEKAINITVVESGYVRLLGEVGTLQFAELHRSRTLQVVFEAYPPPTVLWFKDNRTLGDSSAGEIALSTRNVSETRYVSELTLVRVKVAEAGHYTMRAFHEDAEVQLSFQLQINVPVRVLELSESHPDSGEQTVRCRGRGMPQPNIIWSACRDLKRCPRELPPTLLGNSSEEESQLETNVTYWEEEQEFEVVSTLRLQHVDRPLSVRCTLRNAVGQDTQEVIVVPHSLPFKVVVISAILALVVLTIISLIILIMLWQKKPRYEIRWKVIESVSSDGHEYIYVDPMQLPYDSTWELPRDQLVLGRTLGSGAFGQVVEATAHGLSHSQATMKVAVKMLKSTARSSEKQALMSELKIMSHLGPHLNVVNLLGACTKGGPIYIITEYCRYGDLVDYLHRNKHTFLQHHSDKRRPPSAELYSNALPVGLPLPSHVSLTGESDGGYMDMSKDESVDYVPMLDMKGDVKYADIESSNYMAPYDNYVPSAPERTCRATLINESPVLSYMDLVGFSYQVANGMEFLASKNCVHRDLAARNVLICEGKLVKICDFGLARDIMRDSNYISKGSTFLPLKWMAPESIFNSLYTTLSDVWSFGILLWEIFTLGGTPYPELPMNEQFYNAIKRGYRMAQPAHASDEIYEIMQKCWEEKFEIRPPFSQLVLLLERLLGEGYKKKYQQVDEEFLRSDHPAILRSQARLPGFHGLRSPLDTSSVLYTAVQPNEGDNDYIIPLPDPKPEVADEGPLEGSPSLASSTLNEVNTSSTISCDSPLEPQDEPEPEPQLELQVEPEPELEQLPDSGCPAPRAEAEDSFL
Chain of Tb-labeled inactive PDGFRβ (P09619 whole entry, looked up): as above
Chain of PDGFRβ (Q05030 whole entry, looked up): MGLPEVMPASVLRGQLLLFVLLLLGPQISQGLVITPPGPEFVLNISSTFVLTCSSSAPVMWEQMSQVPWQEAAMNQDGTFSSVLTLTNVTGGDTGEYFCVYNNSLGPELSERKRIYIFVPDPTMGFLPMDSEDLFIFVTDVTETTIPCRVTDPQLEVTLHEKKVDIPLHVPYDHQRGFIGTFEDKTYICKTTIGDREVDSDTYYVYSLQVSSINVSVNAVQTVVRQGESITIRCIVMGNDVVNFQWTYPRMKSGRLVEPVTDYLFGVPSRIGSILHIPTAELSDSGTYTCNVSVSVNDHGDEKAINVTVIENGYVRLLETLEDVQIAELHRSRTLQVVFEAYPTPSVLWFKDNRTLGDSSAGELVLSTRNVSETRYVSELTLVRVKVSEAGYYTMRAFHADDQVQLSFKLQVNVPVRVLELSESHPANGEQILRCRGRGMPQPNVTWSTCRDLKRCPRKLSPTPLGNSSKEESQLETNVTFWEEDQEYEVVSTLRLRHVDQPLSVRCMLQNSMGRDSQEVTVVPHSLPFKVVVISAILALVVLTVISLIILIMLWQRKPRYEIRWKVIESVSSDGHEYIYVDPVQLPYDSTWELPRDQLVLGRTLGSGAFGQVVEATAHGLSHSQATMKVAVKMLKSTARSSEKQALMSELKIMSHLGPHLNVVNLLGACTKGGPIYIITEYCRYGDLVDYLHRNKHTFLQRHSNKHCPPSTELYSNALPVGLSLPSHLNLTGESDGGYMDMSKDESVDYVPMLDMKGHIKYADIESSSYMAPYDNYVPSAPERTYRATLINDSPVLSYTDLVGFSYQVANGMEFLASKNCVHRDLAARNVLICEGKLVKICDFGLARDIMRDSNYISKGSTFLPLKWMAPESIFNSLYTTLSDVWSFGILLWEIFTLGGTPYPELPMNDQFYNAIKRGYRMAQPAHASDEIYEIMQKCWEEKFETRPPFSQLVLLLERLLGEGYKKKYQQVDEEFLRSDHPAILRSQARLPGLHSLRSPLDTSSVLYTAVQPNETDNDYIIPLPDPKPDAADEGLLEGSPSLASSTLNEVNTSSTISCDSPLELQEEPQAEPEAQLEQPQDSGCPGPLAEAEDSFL

Row | Structure (SMILES) | IC50 [1] | IC50 [2] | IC50 (PDGFRβ) | IC50 (VEGFR2, unphosphorylated)
1 | COC(=O)C1(c2cccc(Nc3ncc4c(Nc5cc(C(=O)NCCN6CCCC6(C)C)cnc5C)nn(C)c4n3)c2)CC1 [Example 37, methyl 1-(3-((3-((5-((2-(2,2-dimethylpyrrolidin-1-yl)ethyl)carbamoyl)-2-methylpyridin-3-yl)amino)-1-methyl-1H-pyrazolo[3,4-d]pyrimidin-6-yl)amino)phenyl)cyclopropanecarboxylate] | 6.5 nM | 0.79 nM | 64.2 nM | 5560 nM
2 | Cc1ncc(C(=O)NCCN2CCCC2(C)C)cc1Nc1nn(C)c2nc(Nc3cccc(C4(C(=O)O)CC4)c3)ncc12 [Example 38, 1-(3-((3-((5-((2-(2,2-dimethylpyrrolidin-1-yl)ethyl)carbamoyl)-2-methylpyridin-3-yl)amino)-1-methyl-1H-pyrazolo[3,4-d]pyrimidin-6-yl)amino)phenyl)cyclopropanecarboxylic acid] | 15.3 nM | 1.59 nM | > 3000 nM | 715 nM
3 | Cc1ncc(C(=O)NCCN2CCCC2(C)C)cc1Nc1nn(C)c2nc(Nc3cnn(C)n3)ncc12 [Example 40, N-(2-(2,2-dimethylpyrrolidin-1-yl)ethyl)-6-methyl-5-((1-methyl-6-((2-methyl-2H-1,2,3-triazol-4-yl)amino)-1H-pyrazolo[3,4-d]pyrimidin-3-yl)amino)nicotinamide] | 13 nM | 1.22 nM | 14.1 nM | > 7500 nM
4 | Cc1ncc(C(=O)NCCN2CCCC2(C)C)cc1Nc1nn(C)c2nc(Nc3ccnc(N)c3)ncc12 [Example 41, 5-((6-((2-aminopyridin-4-yl)amino)-1-methyl-1H-pyrazolo[3,4-d]pyrimidin-3-yl)amino)-N-(2-(2,2-dimethylpyrrolidin-1-yl)ethyl)-6-methylnicotinamide] | 3.2 nM | 0.36 nM | 115 nM | > 7500 nM
5 | Cc1ncc(C(=O)NCCN2CCCC2(C)C)cc1Nc1nn(C)c2nc(Nc3cccnc3)ncc12 [Example 42, N-(2-(2,2-dimethylpyrrolidin-1-yl)ethyl)-6-methyl-5-((1-methyl-6-(pyridin-3-ylamino)-1H-pyrazolo[3,4-d]pyrimidin-3-yl)amino)nicotinamide] | 3.9 nM | 0.6 nM | 33.2 nM | > 10000 nM
6 | Cc1ncc(C(=O)NCCN2CCCC2(C)C)cc1Nc1nn(C)c2nc(Nc3cccc(CC(=O)O)c3)ncc12 [Example 44, 2-(3-((3-((5-((2-(2,2-dimethylpyrrolidin-1-yl)ethyl)carbamoyl)-2-methylpyridin-3-yl)amino)-1-methyl-1H-pyrazolo[3,4-d]pyrimidin-6-yl)amino)phenyl)-acetic acid] | 9.7 nM | 1.54 nM | 2660 nM | 2190 nM
7 | Cc1ncc(C(=O)NCCN2CCCC2(C)C)cc1Nc1nn(C)c2nc(Nc3cccc(C(C)(C)C(=O)O)c3)ncc12 [Example 47, 2-(3-((3-((5-((2-(2,2-dimethylpyrrolidin-1-yl)ethyl)carbamoyl)-2-methylpyridin-3-yl)amino)-1-methyl-1H-pyrazolo[3,4-d]pyrimidin-6-yl)amino)phenyl)-2-methylpropanoic acid] | 14.6 nM | 2.58 nM | > 3000 nM | 2420 nM
8 | Cc1cc(C(=O)NCCN2CCCC2(C)C)sc1Nc1nn(C)c2nc(Nc3cncnc3)ncc12 [Example 48, N-(2-(2,2-dimethylpyrrolidin-1-yl)ethyl)-4-methyl-5-((1-methyl-6-(pyrimidin-5-ylamino)-1H-pyrazolo[3,4-d]pyrimidin-3-yl)amino)thiophene-2-carboxamide] | 52.8 nM | 1.07 nM | 110 nM | > 7500 nM
9 | COC1CCN(CCNC(=O)c2cc(C)c(Nc3nn(C)c4nc(Nc5cnn(C)c5)ncc34)s2)CC1 [Example 49, N-(2-(4-methoxypiperidin-1-yl)ethyl)-4-methyl-5-((1-methyl-6-((1-methyl-1H-pyrazol-4-yl)amino)-1H-pyrazolo[3,4-d]pyrimidin-3-yl)amino)thiophene-2-carboxamide] | 40.2 nM | 1.17 nM | 105 nM | > 7500 nM
10 | Cn1nc(Nc2cc(C(=O)NCCN3CCCC3(C)C)ccc2F)c2cnc(Nc3cncnc3)nc21 [Example 51, N-(2-(2,2-dimethylpyrrolidin-1-yl)ethyl)-4-fluoro-3-((1-methyl-6-(pyrimidin-5-ylamino)-1H-pyrazolo[3,4-d]pyrimidin-3-yl)amino)benzamide] | 9 nM | 0.87 nM | 17.2 nM | > 7500 nM
11 | Cn1nc(Nc2cc(C(=O)NCCN3CCCC3(C)C)ccc2F)c2cnc(Nc3ccncn3)nc21 [Example 52, N-(2-(2,2-dimethylpyrrolidin-1-yl)ethyl)-4-fluoro-3-((1-methyl-6-(pyrimidin-4-ylamino)-1H-pyrazolo[3,4-d]pyrimidin-3-yl)amino)benzamide] | 160 nM | 4.71 nM | 67 nM | > 2500 nM
12 | Cc1ncc(C(=O)NCCN2CC(C)(C)C2)cc1Nc1nn(C)c2nc(Nc3cncnc3)ncc12 [Example 55, N-(2-(3,3-dimethylazetidin-1-yl)ethyl)-6-methyl-5-((1-methyl-6-(pyrimidin-5-ylamino)-1H-pyrazolo[3,4-d]pyrimidin-3-yl)amino)nicotinamide] | 9.5 nM | 0.55 nM | 275 nM | > 7500 nM
13 | Cc1ncc(C(=O)NCCN2CCCCC23CC3)cc1Nc1nn(C)c2nc(Nc3cncnc3)ncc12 [Example 56, N-(2-(4-azaspiro[2.5]octan-4-yl)ethyl)-6-methyl-5-((1-methyl-6-(pyrimidin-5-ylamino)-1H-pyrazolo[3,4-d]pyrimidin-3-yl)amino)nicotinamide] | 3 nM | 0.54 nM | 9.7 nM | > 7500 nM
14 | Cc1ncc(C(=O)NCCN2CCCC23CC3)cc1Nc1nn(C)c2nc(Nc3cncnc3)ncc12 [Example 57, N-(2-(4-azaspiro[2.4]heptan-4-yl)ethyl)-6-methyl-5-((1-methyl-6-(pyrimidin-5-ylamino)-1H-pyrazolo[3,4-d]pyrimidin-3-yl)amino)nicotinamide] | 5.6 nM | 0.97 nM | 15.6 nM | > 7500 nM
15 | Cc1ncc(C(=O)NCCN2CCC3(CC3)C2)cc1Nc1nn(C)c2nc(Nc3cncnc3)ncc12 [Example 58, N-(2-(5-azaspiro[2.4]heptan-5-yl)ethyl)-6-methyl-5-((1-methyl-6-(pyrimidin-5-ylamino)-1H-pyrazolo[3,4-d]pyrimidin-3-yl)amino)nicotinamide] | 4.8 nM | 0.36 nM | 101 nM | > 7500 nM
16 | Cc1cc(C(=O)NCCN2CCC[C@@H]2C)sc1Nc1nn(C)c2nc(Nc3cnn(C)c3)ncc12 [Example 60, (S)-4-methyl-5-((1-methyl-6-((1-methyl-1H-pyrazol-4-yl)amino)-1H-pyrazolo[3,4-d]pyrimidin-3-yl)amino)-N-(2-(2-methylpyrrolidin-1-yl)ethyl)thiophene-2-carboxamide] | 9.7 nM | 0.65 nM | 67.2 nM | > 7500 nM
17 | Cc1cc(C(=O)NCCN2CC3COCC3C2)sc1Nc1nn(C)c2nc(Nc3cnn(C)c3)ncc12 (stereo not drawn) [Example 61, 4-methyl-5-((1-methyl-6-((1-methyl-1H-pyrazol-4-yl)amino) 1H-pyrazolo[3,4-d]pyrimidin-3-yl)amino)-N-(2-(tetrahydro-1H-furo[3,4-c]pyrrol-5(3H)-yl)ethyl)thiophene-2-carboxamide] | 10.2 nM | 0.61 nM | 86.8 nM | 3860 nM
18 | Cc1cc(C(=O)NCCN2CCCOCC2)sc1Nc1nn(C)c2nc(Nc3cnn(C)c3)ncc12 [Example 62, N-(2-(1,4-oxazepan-4-yl)ethyl)-4-methyl-5-((1-methyl-6-((1-methyl-1H-pyrazol-4-yl)amino)-1H-pyrazolo[3,4-d]pyrimidin-3-yl)amino)thiophene-2-carboxamide] | 12.1 nM | 0.83 nM | 64.7 nM | > 7500 nM
19 | Cn1cc(Nc2ncc3c(Nc4cc(C(=O)NCCN5CCC(F)(F)CC5)ccc4F)nn(C)c3n2)cn1 [Example 63, N-(2-(4,4-difluoropiperidin-1-yl)ethyl)-4-fluoro-3-((1-methyl-6-((1-methyl-1H-pyrazol-4-yl)amino)-1H-pyrazolo[3,4-d]pyrimidin-3-yl)amino)benzamide] | 0.89 nM | 0.2 nM | 1.6 nM | 582 nM
20 | Cc1ccc(C(=O)NCCN2CC(C)(C)C2)cc1Nc1nn(C)c2nc(Nc3cnn(C)c3)ncc12 [Example 64, N-(2-(3,3-dimethylazetidin-1-yl)ethyl)-4-methyl-3-((1-methyl-6-((1-methyl-1H-pyrazol-4-yl)amino)-1H-pyrazolo[3,4-d]pyrimidin-3-yl)amino)benzamide] | 2.1 nM | 0.26 nM | 8.9 nM | 1030 nM
21 | Cc1ccc(C(=O)NCCN2CCC[C@@H]2C)cc1Nc1nn(C)c2nc(Nc3cnn(C)c3)ncc12 [Example 65, (S)-4-methyl-3-((1-methyl-6-((1-methyl-1H-pyrazol-4-yl)amino)-1H-pyrazolo[3,4-d]pyrimidin-3-yl)amino)-N-(2-(2-methylpyrrolidin-1-yl)ethyl)benzamide] | 2.1 nM | 0.22 nM | 10 nM | 2400 nM
